Where “and” joins values, the source holds several entries; their conditions need not be identical. Equal values may be shown once.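 Growth conditions: 96-well plates. Treatment: test compound, 48 hours, 5 concentrations. Analysis: linear interpolation between bracketing concentrations; unreached endpoints set to highest concentration. The concentration for 50% growth inhibition is given as GI50. TGI: concentration producing complete growth inhibition.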
Columns and labels:
Assay in all cases: NCI anticancer screen, dose series, 48 h
TK-10 renal = system: TK-10 renal
MALME-3M melanoma = system: MALME-3M melanoma
KM12 colon = system: KM12 colon
786-0 renal = system: 786-0 renal
LOX IMVI melanoma = system: LOX IMVI melanoma
RPMI-8226 leukemia = system: RPMI-8226 leukemia
HT29 colon = system: HT29 colon
SK-OV-3 ovarian = system: SK-OV-3 ovarian
NCI/ADR-RES ovarian = system: NCI/ADR-RES ovarian
PC-3 prostate = system: PC-3 prostate

SMILES	TGI (TK-10 renal) [µM]	TGI (MALME-3M melanoma) [µM]	TGI (KM12 colon) [µM]	TGI (786-0 renal) [µM]	TGI (LOX IMVI melanoma) [µM]	TGI (RPMI-8226 leukemia) [µM]	TGI (HT29 colon) [µM]	TGI (SK-OV-3 ovarian)	GI50 (NCI/ADR-RES ovarian) [µM]	TGI (NCI/ADR-RES ovarian) [µM]	GI50 (TK-10 renal) [µM]	GI50 (KM12 colon) [µM]	GI50 (786-0 renal) [µM]	GI50 (PC-3 prostate) [µM]	TGI (PC-3 prostate) [µM]	GI50 (RPMI-8226 leukemia) [µM]	GI50 (HT29 colon) [µM]	GI50 (SK-OV-3 ovarian) [µM]	GI50 (MALME-3M melanoma) [µM]	GI50 (LOX IMVI melanoma) [µM]
O=c1nc2occc2cn1C1CC(O)C(CO)O1 (configuration not stated)	> 100	> 100	> 100	> 100	> 100	> 100	> 100	> 100 µM	–	–	–	–	–	–	–	–	–	–	–	–
Clc1ccc2c(NCCCNc3nccc(Nc4ccc(Br)cc4)n3)ccnc2c1	3.26	–	3.36	3.45	–	4.45	2.67	2.91 µM	1.79	3.42	1.83	1.82	1.75	1.74	3.56	1.97	1.26	1.55	–	–
O=C1CCCC/C(=C/c2ccccc2)N1	> 100	> 100	> 100	> 100	> 100	> 100	> 100	> 100 µM	–	–	–	–	–	–	–	–	–	–	–	–
CC(=O)O.CC(=O)O.CC(=O)O.CC(=O)O.CC(=O)O.CC(=O)O.O.[Ti].[Ti]	> 100	> 100	> 100	> 100	> 100	> 100	> 100	–	–	–	> 100	> 100	> 100	–	–	> 100	> 100	–	> 100	> 100
Cc1ccccc1N1C(=O)/C(=C/c2ccc(N(CCC#N)CCC#N)cc2)N=C1c1cc([N+](=O)[O-])ccc1Cl	–	> 100	> 100	> 100	–	> 100	> 100	> 100 µM	–	–	–	–	–	–	–	–	–	–	–	–
Cc1ccc(S(=O)(=O)NCC2CCCCC2=O)cc1 (configuration not stated)	> 100	> 100	> 100	> 100	> 100	> 100	> 100	> 100 µM	–	–	–	–	–	–	–	–	–	–	–	–
O=C(Nc1nc2ncn(CCI)c2c(=O)[nH]1)c1ccccc1	> 100	> 100	> 100	> 100	> 100	> 100	> 100	90.5 µM	–	–	–	–	–	–	–	–	–	–	–	–
S=C(N/N=C/c1ccco1)NC12CC3CC(CC(C3)C1)C2	> 100	> 100	> 100	> 100	> 100	–	> 100	> 100 µM	–	–	–	–	–	–	–	–	–	–	–	–
O=C1c2ccccc2C(=O)C1(Cl)C1(S(=O)(=O)O)c2ccccc2-c2ccccc21	> 100	> 100	> 100	> 100	> 100	> 100	> 100	> 100 µM	–	–	–	–	–	–	–	–	–	–	–	–
CCOC(=O)Oc1c(OC)cc(C(=O)NC2CCc3cc(OC)c(OC)c(OC)c3-c3ccc(SC)c(=O)cc32)cc1OC (configuration not stated)	> 70	> 70	–	13	–	–	0.489	0.466 µM and 0.0553 µM	–	–	0.163	< 0.007	0.023	–	–	–	–	0.00717	0.0205	–
CCCCN(CCCC)CC(C(=O)Nc1ccc([N+](=O)[O-])cc1[N+](=O)[O-])/C(C)=N\NC(=S)NN (configuration not stated)	> 100	> 100	> 100	> 100	> 100	> 100	> 100	> 100 µM	–	–	–	–	–	–	–	–	–	–	–	–
Cc1cc(Br)cc(C)c1NC(=O)C(=O)C(C(=O)c1ccc2ccccc2c1)C1OC(=O)c2ccccc21 (configuration not stated)	36.9	34.5	34	19.3	31.1	> 80.5	41.7	> 100 µM	–	–	–	–	–	–	–	–	–	–	–	–
CSc1nc2c(nc(C)c(=O)n2C2OCC(OC(C)=O)C(OC(C)=O)C2OC(C)=O)c(=O)[nH]1 (configuration not stated)	> 100	> 100	> 100	> 100	> 100	> 100	> 100	> 100 µM	–	–	–	–	–	–	–	–	–	–	–	–
CC1OC(n2cc(F)c(=O)[nH]c2=O)C=CC1O (configuration not stated)	> 100	> 100	> 100	> 100	> 64.3	> 100	> 100	> 100 µM	–	–	–	–	–	–	–	–	–	–	–	–
CC(C)(C)[SiH]12(OC(C(F)(F)F)(C(F)(F)F)c3ccccc31)OC(C(F)(F)F)(C(F)(F)F)c1ccccc12	26.3	31	15.3	11.1	–	> 100	13.2	–	–	–	–	–	–	–	–	–	–	–	–	–
Ic1ccc(Nc2nc3nonc3nc2Nc2ccc(I)cc2)cc1	> 100	0.604	> 100	> 100	–	0.574	> 100	0.741 µM	0.313	> 100	0.321	0.293	0.332	0.186	> 100	0.107	0.265	0.23	0.167	–
COC(=O)C(C(=O)C(=O)Nc1cccc(OC)c1)c1cnc2ccccc2n1 (configuration not stated)	> 100	> 100	> 100	> 100	> 100	> 100	> 100	> 100 µM	–	–	–	–	–	–	–	–	–	–	–	–
Cc1ccc(SC(C)/C=C/NNC2=NC(c3ccccc3)C(c3ccccc3)=NN2)cc1 (configuration not stated)	> 100	> 100	> 100	> 100	> 100	> 100	27.3	> 100 µM	–	–	–	–	–	–	–	–	–	–	–	–
CC1=CC(/C=C(\C)CCCc2ccoc2)C2(OC(=O)C(C)=C2O)[C@H]2C1CC[C@@H]2C (some centres not stated)	> 100	57.1	> 100	32.2	59.3	59.6	> 100	69 µM	–	–	–	–	–	–	–	–	–	–	–	–
O=[N+]([O-])c1nccn1CC(O)c1ccc(F)cc1 (configuration not stated)	> 100	> 100	> 100	> 100	> 100	> 100	> 100	> 100 µM	–	–	–	–	–	–	–	–	–	–	–	–
C=CC1CC12C(=O)C1OC2(C)C2C(=O)c3cc4ccccc4cc3C(=O)C12 (configuration not stated)	97.1	57.4	58.7	83	–	–	> 100	> 100 µM	26.9	95.4	31.8	21.8	23.4	20.3	> 100	–	27.5	48.1	16.8	–

From PubChem BioAssay (NCI)
